According to patent US20160287536A1, “Composition” (THE UNIVERSITY OF NOTTINGHAM, priority 2013, published 2016):
Where “and” joins values, the source holds several entries; their conditions need not be identical. Identical values can stand only once. Like-named read-outs stand apart in the source and are kept apart here.

What was measured:
Format in all cases: cell-based
[1] = system: sheep isolated rectal artery; test: Wire myography, sheep isolated rectal artery (SRA); conditions: for effect on the noradrenaline CRC: prazosin 0.4-10 nM, RX811059 30 nM; for spontaneous contraction: sheep isolated rectal vessels, 10 μM
Experimental: (§1) Sheep mesenteric tissue, from the distal sigmoid colon to the anus, was obtained from a local abattoir. The sheep tissue was delivered in a dry bag and stored at 4° C. until dissected. The bundle of sheep rectal vessels was dissected from its mesentery within four hours of arrival from the abattoir. The vascular bundle was then kept in the pre-oxygenated Krebs-Henseleit buffer solution at 4° C. until used (on the same day as a preferential method or on the following day after storage overnight). No experiments were conducted on tissue stored for more than 24 hours after dissection. The Krebs solution consisted of 118.4 mM NaCl, 4.7 mM KCl, 1.2 mM MgSO4, 1.2 mM KH2PO4, 1.25 mM CaCl2, 24.9 mM NaHCO3, and 11.1 mM glucose.
(§2) Before setting a wire myography experiment, the remaining loose connective tissue was meticulously removed from the rectal vessels. The internal diameter of sheep isolated rectal artery and vein was 450-650 μm and 500-1000 μm, respectively. Each 5-mm ring segment of the ‘clean’ vessels was then suspended between two 200-μm wire supports in an organ bath containing 20 ml Krebs-Henseleit buffer solution. The upper supporting wire was attached to an isometric force transducer, while the lower wire was fixed steadily to a clamped glass rod. The bath solution was maintained at 37° C., and continuously gassed with 95% O2 and 5% CO2. Isometric tension was continuously recorded using a PowerLab 4/25 via QUAD Bridge amplifier (ADInstruments, Inc, Australia).
(§3) After a 10-minute equilibration period, an initial tension of 8 gram weight (g wt) was gradually applied for an arterial segment and left to relax for 30 minutes. The final tension of SRA varied between 1.0 g wt and 2.8 g wt. For a venous segment, an initial tension of 1 g wt was applied and, 10 minutes later, the resting tension was finally re-adjusted to reach a tension of 0.5 g wt. Then the vein was left to relax for further 20 minutes. The final tension of SRV ranged from 0.08 to 0.25 g wt. Once the vascular segments were fully settled, the tissues were tested for contractile activity with 60 mM KCl on three occasions. The vascular contraction was allowed to reach maximum, which generally took about 1-4 minutes. Each KCl challenge was followed by two washouts of 37° C. Krebs solution and the tissues were allowed to rest for 20 minutes between the challenges. The maximum contraction (tension) produced by the third administration of 60 mM KCl was used as a reference contraction to which subsequent responses were compared. After the final (3rd) KCl challenge, the tissues were washed and left for 60 minutes before α-adrenoceptor agonist was administrated. To construct an agonist concentration-response curves (CRC), 0.3-0.4 log 10 increments of agonist solution was added e.g. at the agonist concentration of 100 nM, 200 nM, 500 nM, 1 μM, 2 μM, 5 μM, and so on. Each response was allowed to reach equilibrium or plateau before the next dose of agonist was added. The maximal response to the agonist was considered when no further increase in response occurred upon the addition of two or more consecutive doses of agonist.
(§4) In the case of the noradrenaline study, 10 μM cocaine was added into the organ bath 40 minutes prior to the administration of noradrenaline for inhibiting the uptake of noradrenaline by neural tissue within the vascular wall (re-uptake 1) (Westfall & Westfall, 2006 In Goodman & Gilman's the Pharmacological Basis of Therapeutics. eds Brunton, L. L., Lazo, J. S. & Paker, K. L. pp. 137-181. New York: McGraw Hill). Regarding KCl-induced vasoconstriction, the CRC was generated by the contractile response to 6 mM increments of KCl solution, starting from 0 mM to 60 mM.
(§5) Consecutive CRCs were generated to each agonist, separated by 60 minutes, and if there was no difference in the maximum response (Emax) and pEC50 (defined as the negative logarithm of the concentration required to produce 50% of the maximum response) then a paired CRC protocol was used throughout. […]

[2] = system: sheep isolated rectal vein; test: Wire myography, sheep isolated rectal vein (SRV); conditions: for rightward shift of the CRC for noradrenaline: prazosin 10 nM, RX811059 30 nM
Experimental: as §1, §2, §3, §4, §5

[3] = system: human isolated mesenteric vein; test: Wire myography, human isolated mesenteric (colonic/rectal) vein (HMV); conditions: for effect on potency of noradrenaline: 10 nM prazosin, 30 nM RX811059; for EC50: Homo sapiens
Excerpt: (§6) After obtaining approval from the local research ethics committee (Reference number: 05/Q2403/171) and having written consent from the patient, human mesenteric (colonic or rectal) vessels were collected from patients who underwent colectomy and/or proctectomy at the Division of Gastrointestinal Surgery, Queen's Medical Centre, University of Nottingham, UK, between August 2009 and March 2010. Patients with a history of previous abdominal/pelvic radiotherapy, and patients with endocrine tumours or concomitant intraabdominal infection were excluded from this study. In an operating room, the mesentery containing the required segment of blood vessels was dissected from the whole surgical specimen immediately after it was removed from a patient. The tissue was then kept in a 100-ml pot containing pre-oxygenated Krebs-Henseleit buffer solution maintained at 4° C. until used. No experiments were conducted on tissue stored for more than 12 hours after dissection. The Krebs solution consisted of 118.4 mM NaCl, 4.7 mM KCl, 1.2 mM MgSO4, 1.2 mM KH2PO4, 1.25 mM CaCl2, 24.9 mM NaHCO3, and 11.1 mM glucose.
Before setting a wire myography experiment, human mesenteric (colonic/rectal) vessels were meticulously dissected from the surrounding mesenteric fatty tissue. The ‘clean’ vessel was then divided into 5-mm ring segments. Generally, the internal diameter of vessels ranged between 400-1000 μm for human mesenteric artery (HMA) and 500-1200 μm for human mesenteric vein (HMV). Each 5-mm ring segment was suspended between two 200-μm wire supports in an organ bath containing 20 ml Krebs-Henseleit buffer solution. The contractile study of human mesenteric vessels was then set in the similar manner of the previous study on sheep isolated rectal vessels.
After a 20-minute equilibration period, an initial resting tension of 8 and 1 gram weight (g wt) was gradually applied to arterial and venous ring segments, respectively, and left to relax for 30 minutes. The final resting tension varied between 1.8 g wt and 3.2 g wt for HMA, and between 0.07 g wt and 0.35 g wt for HMV. Once the vascular segments were fully settled, they were tested for contractile activity with 60 mM KCl three occasions, and an agonist concentration-response curves (CRC) was then reconstructed after the vessels were left to equilibrate for 60 minutes as previously described for sheep rectal vessels. […] In the case of noradrenaline study, 10 μM cocaine was added into the organ bath 40 minutes prior to the administration of noradrenaline for inhibiting the uptake of noradrenaline by neural tissue within the vascular wall (re-uptake 1) (Westfall & Westfall, 2006 In Goodman & Gilman's the Pharmacological Basis of Therapeutics. eds Brunton, L. L., Lazo, J. S. & Paker, K. L. pp. 137-181. New York: McGraw Hill).
Although it appeared that the CRCs of several vasoconstrictors were reproducible (no significant change in maximum response and agonist potency) in human mesenteric vessels, a single CRC, paired segment approach was adopted throughout the study of human blood vessels. This was due to a desire to limit the time of tissue storage and the ease of tissue preparation. The single CRC, paired segment approach involves the generation of only one agonist CRC per tissue. The maximum response (Emax) and pEC50 (defined as the negative logarithm of the concentration required to produce 50% of the maximum response) of each vascular segment were compared to those of other vascular segments (adjacent segments from the same patient, or other segments from different patients).
If the vessel had spontaneous and periodic contraction after the administration of S(−)-BayK8644—which occurred in 70% of HMA and 80% of HMV, the effect of agonist would be considered when there was an increase in the frequency of contraction as well as a rise in the baseline of vascular tone.
The selective α1-adrenoceptor antagonist prazosin and selective α2-adrenoceptor antagonist RX811059 were used in this study. […]

[4] = system: human isolated mesenteric artery; test: Wire myography, human isolated mesenteric (colonic/rectal) artery (HMA)
Excerpt: as §6
Before setting a wire myography experiment, human mesenteric (colonic/rectal) vessels were meticulously dissected from the surrounding mesenteric fatty tissue. The ‘clean’ vessel was then divided into 5-mm ring segments. […]

[5] = Ovis aries, SRV, 10 nM prazosin / 30 nM RX811059 against noradrenaline
[6] = Ovis aries, SRV, agonist alone (control)
[7] = with 10 nM prazosin and 30 nM RX811059

Compound: CCOC1(C2=NCCN2)COc2ccccc2O1 (stereo not drawn) [RX811059, 2-(2-ethoxy-1,4-benzodioxan-2-yl)-2-imidazoline]
- effect on the noradrenaline CRC ([1]; SRA): no change
- Kb [2, 5]: 13.8 nM
- pKB ([2]; SRV, 10 nM prazosin / 30 nM RX811059 against noradrenaline): ~7.9
- further rightward shift of the CRC for noradrenaline ([2]; SRV, 30 nM RX811059 added to 10 nM prazosin): 1.6 fold
- rightward shift of the CRC for noradrenaline ([2]; SRV): 3 fold
- effect on potency of noradrenaline [3]: significantly reduced the potency of noradrenaline
- parallel rightward shift of CRC to guanfacine ([3]; 30 nM): 2 fold

Compound: COc1ccc(-c2cc(=O)c3c(O)cc(O[C@@H]4O[C@H](CO[C@@H]5O[C@@H](C)[C@H](O)[C@@H](O)[C@H]5O)[C@@H](O)[C@H](O)[C@H]4O)cc3o2)cc1O [diosmin, 3′,5,7-trihydroxy-4′-methoxyflavone 7-rutinoside]
- spontaneous contraction [1]: no spontaneous contraction

Compound: NC[C@H](O)c1ccc(O)c(O)c1 [noradrenaline]
- contractile response ([1]; SRA): concentration-dependent contractions
- EC50 [2, 6]: 389 nM
- EC50 ([2]; Ovis aries, SRV, in the presence of 30 nM RX811059): 1260 nM
- contractile response ([2]; SRV): concentration-dependent contractions
- venoselectivity ([2]; sheep rectal vessels, vein vs artery): 4 fold

Compound: NCCc1c[nH]c2ccc(O)cc12 [5-HT, 5-hydroxytryptamine]
- contractile response ([1]; SRA): concentration-dependent contractions
- contractile response ([2]; SRV): concentration-dependent contractions

Compound: COc1cc2nc(N3CCN(C(=O)c4ccco4)CC3)nc(N)c2cc1OC [prazosin]
- Kb ([1]; Ovis aries, SRA and SRV, contraction to noradrenaline (summary)): 0.158 to 0.398 nM
- Kb ([1]; Ovis aries, SRA, 2 nM prazosin against noradrenaline-induced contraction): 0.398 nM
- effect on the noradrenaline CRC ([1]; SRA): concentration-dependent, parallel rightward shift
- Kb [2, 5]: 0.17 nM
- rightward shift of the CRC for noradrenaline ([2]; SRV): 70 fold
- Kb ([4]; Homo sapiens, noradrenaline-induced contractions): 0.316 nM
- effect on potency of noradrenaline [3]: significantly reduced the potency of noradrenaline

Compound: COC(=O)C1=C(C)NC(C)=C([N+](=O)[O-])[C@H]1c1ccccc1C(F)(F)F [S(−)-BayK8644, (4S)-1,4-dihydro-2,6-dimethyl-5-nitro-4-[2-(trifluoromethyl)-phenyl]-3-pyridine carboxylic acid methyl ester]
- effect on 5-HT-induced contraction ([1]; SRA and SRV, 1 μM): no effect
- effect on potency of KCl ([1]; SRA, 1 μM): significantly increased the potency
- observations with spontaneous contraction ([1]; SRA, 1 μM): 6%
- effect on potency of noradrenaline ([2]; SRV, 1 μM): significantly increased the potency
- vessels with spontaneous phasic contraction ([4]; 1 μM): 70% and 71%
- vessels with spontaneous phasic contraction ([3]; 1 μM): 80% and 83%

Compound: O=c1c(O)c(-c2cc(O)c(O)c(O)c2)oc2cc(O)cc(O)c12 [myricetin, 3,3′,4′,5,5′,7-hesahydroxyflavone]
- spontaneous contraction [1]: no spontaneous contraction

Compound: COc1ccc(OC)c(C(O)C(C)N)c1 [L-erythro methoxamine]
- contractile response ([1]; SRA): concentration-dependent contractions
- maximum response as fraction of that to noradrenaline ([1]; SRA and SRV): one-third
- arterioselectivity ([1]; sheep rectal vessels, artery vs vein): 3 fold
- contractile response ([2]; SRV): concentration-dependent contractions

Compound: N=C(N)NC(=O)Cc1c(Cl)cccc1Cl [guanfacine]
- EC50 ([1]; Ovis aries, SRA, agonist alone): 794 nM
- Emax ([1]; Ovis aries, SRA, read-out: maximum response relative to maximum response to noradrenaline): ~20%
- contractile response ([1]; SRA): concentration-dependent contractions
- EC50 [2, 6]: 398 nM
- EC50 ([2]; Ovis aries, SRV, in the presence of 10 nM prazosin and 30 nM RX811059): 912 nM
- EC50 ([2]; Ovis aries, SRV, in the presence of 1 μM S(−)-BayK8644): 229 nM
- Emax ([2]; Ovis aries, SRV, read-out: maximum response relative to maximum response to noradrenaline): 45%
- contractile response ([2]; SRV): concentration-dependent contractions
- Emax ([2]; SRV, agonist alone (control)): 54.7±8.1 percentage of the contraction and 37.0±6.6 percentage of the contraction
- pEC50 ([2]; SRV, agonist alone (control)): 6.58±0.07 and 6.48±0.11
- Emax ([2]; SRV, in the presence of 10 nM prazosin and 30 nM RX811059): 31.3±4.2 percentage of the contraction
- Emax ([2]; SRV, in the presence of 1 μM S(−)-BayK8644): 72.8±9.0 percentage of the contraction
- EC50 ([3]; control): 2.24 µM
- EC50 ([3]; with 10 nM prazosin): 2.45 µM
- EC50 [3, 7]: 6.46 µM
- EC50 ([3]; with 30 nM RX811059): 5.25 µM
- Emax ([3]; control): 31.4±4.1 percentage of the contraction
- Emax ([3]; with 10 nM prazosin): 18.4±4.1 percentage of the contraction
- Emax [3, 7]: 20.3±8.5 percentage of the contraction
- Emax ([3]; with 30 nM RX811059): 33.0±4.1 percentage of the contraction

Compound: [Cl-].[K+] [KCl]
- contractile response ([1]; SRA): sustained concentration-dependent contraction
- mean contraction to 60 mM KCl ([1]; SRA, n=119): 3.14±0.09 g wt
- contractile response ([2]; SRV): concentration-dependent contractions
- mean contraction to 60 mM KCl ([2]; SRV, n=128): 1.18±0.05 g wt
